Results taken from patent US20040062764A1, “Chemoprotectant for gastric toxicity” (priority 2003, published 2004).
≈ marks a conversion by molar mass, not a printed value. Entries after “also recorded” stand apart in the source; their conditions may differ. Read-outs that look alike come from different tables or passages of the source.

What was measured:
[1] = test system: normal human gastric cells (NHGC); conditions: for percent viable gastric cells, BR96-DOX plus chemoprotectant (FIGS. 3 and 4): with or without BSO pretreatment
Protocol: Cytotoxicity was assessed in cultured normal human gastric cells (NHGC), using the WST colorometric assay for live cells. Cells were treated with approximately LD90 dose of BR96-DOX, immediately followed by NAC at the indicated concentrations.
(§1) A NHGC cell line and a human gastric carcinoma cell line (AGS) were obtained.

[2] = test system: human gastric carcinoma cell line (AGS); assay: Cytotoxicity dose response in gastric carcinoma cells; conditions: for cell survival, comparison of combinations (FIGS. 5 and 6): NAC+BSO+BR96-DOX versus BR96-DOX+BSO without NAC; for EC50: Homo sapiens, AGS
Protocol: as §1
The dose response curves for BR96-DOX and doxorubicin with or without the addition of buthionine sulfoximine (BSO) at a concentration of 100 μM were assessed.

GSH = assay: Blood and tissue GSH levels, colorometric kit; type: in vivo, nude rats; conditions: BSO 10 g/m^2 i.p. b.i.d. x 3 days; even in brain and intracerebral tumor
Protocol: (§2) NAC biodistribution was determined with radiolabelled tracer (n=12). Blood and tissue GSH levels were measured with a colorometric kit 9 (n=19). For bone marrow toxicity studies, rats were treated with or without BSO (10 g/m^2 i.p. b.i.d.×3 days), followed by chemotherapy consisting of intra-carotid carboplatin (200 mg/m^2), melphalan (10 mg/m^2) and etoposide phosphate (100 mg/m^2) (n=61). The dose of NAC was 1200 mg/m^2 and STS was 8 gm/m^2. White blood cell and platelet counts were obtained prior to, at 6 days and 9-10 days after chemotherapy.

bone marrow = assay: Bone marrow toxicity study after intra-carotid combination chemotherapy
Protocol: as §2

[3] = test system: low-expressor and high-expressor subclones of the LX-1 SCLC cell line; assay: BSO cytoenhancement in LX-1 SCLC subclones; type: cell-based, human; conditions: low- and high-expressor LX-1 subclones
[4] = NAC biodistribution with radiolabelled tracer; type: in vivo, rat
Protocol: as §2

B.5 LX-1 SCLC cells = assay: WST colorometric live-cell assay, NAC chemoprotection against alkylating chemotherapy; type: cell-based; conditions: Homo sapiens; approx. LD90 chemotherapy (melphalan 20 μM, carboplatin 200 μM, cisplatin 20 μM); NAC added immediately after; all three drugs; read-out: NAC concentration for half-maximal protection against cell death
Protocol: Cytotoxicity was assessed in cultured B.5 LX-1 SCLC cells, using the WST colorometric assay for live cells. Cells were treated with approximately LD90 dose of chemotherapy (melphalan=20 μM, carboplatin=200 μM, cisplatin=20 μM). Immediately following chemotherapy, NAC chemoprotectant was added at the indicated concentration. NAC protected against cell death by all three chemotherapeutic drugs, with half-maximal protection found between 0.1 mg/ml NAC and 0.3 mg/ml NAC.

[5] = after a bolus injection; cited from earlier work

CCCCS(=N)(=O)CCC(N)C(=O)O (stereo not shown) [BSO, buthionine sulfoximine]
effect of BSO on cytotoxicity of BR96-DOX or doxorubicin in normal gastric cells ([1]; NHGC): did not increase toxicity; also recorded: did not enhance the cytotoxicity
effect of BSO on cytotoxicity in carcinoma cells [2]: enhanced cytotoxicity
cell survival, comparison of combinations (FIGS. 5 and 6) [2]: least survival
reduction of blood and tissue GSH levels (GSH): 50-65%
bone marrow toxicity of combination chemotherapy (bone marrow; BSO pretreatment, intra-carotid carboplatin, melphalan, etoposide phosphate): enhanced the bone marrow toxicity
effect of BSO on cytotoxicity of BR96-DOX or doxorubicin [3]: did not enhance the cytotoxicity

CCOC(=O)CNC(=O)[C@H](CS)NC(=O)CC[C@H](N)C(=O)O [GSH ethyl ester]
reduction of BR96-DOX cell kill, other chemoprotective agents ([1]; NHGC): 15-20%
percent viable gastric cells, BR96-DOX plus chemoprotectant (FIGS. 3 and 4) [1]: second highest amount of viable gastric cells

CC(=O)N[C@@H](CS)C(=O)O [NAC, N-acetylcysteine]
systemic delivery of radiolabelled NAC ([4]; aortic infusion): increasing systemic delivery
brain delivery of radiolabelled NAC ([4]; aortic infusion (retrograde left external carotid, left internal carotid occluded)): negligible levels
brain delivery of radiolabelled NAC ([4]; intraarterial, right carotid artery): high delivery to the right cerebral hemisphere
protection against BR96-DOX cytotoxicity in normal gastric cells ([1]; NHGC): protected the normal gastric cells; also recorded: at least partially protective; also recorded: protective independent of the presence of BSO
reduction of BR96-DOX cell kill ([1]; NHGC, experiment 1): 25%
reduction of BR96-DOX cell kill ([1]; NHGC, experiment 2): 95%
reduction of BR96-DOX cell kill ([1]; NHGC, experiment 3): 55%
protective NAC concentration relative to that required against alkylating chemotherapeutics ([1]; NHGC/BR96-DOX vs B.5 LX-1/alkylators): 10 fold
percent viable gastric cells, BR96-DOX plus chemoprotectant (FIGS. 3 and 4) [1]: increased the percentage of viable gastric cells
effect on BSO-enhanced BR96-DOX cytotoxicity [2]: did reverse the enhanced cytotoxicity
effect on response to BR96-DOX ([2]; AGS cells not treated with BSO): did not alter the response
cell survival, comparison of combinations (FIGS. 5 and 6) [2]: greatest amount of cells survived
EC50 (B.5 LX-1 SCLC cells): 100 to 300 µg/mL (≈ 613 to 1840 µM)
granulocytes at nadir (bone marrow; day 6, NAC 1200 mg/m^2 aortic infusion before intra-carotid chemotherapy, no BSO, no NAC: 146±160, p<0.02): 785±494
platelets at nadir (bone marrow; day 6, NAC 1200 mg/m^2 aortic infusion before intra-carotid chemotherapy, no BSO, no NAC: 215±126, p<0.02): 470±234

O=S([O-])([O-])=S.[Na+].[Na+] [STS, sodium thiosulfate]
reduction of BR96-DOX cell kill, other chemoprotective agents ([1]; NHGC): no significant effect
plasma half life [5]: about 17 minutes

CSCC[C@@H](N)C(=O)O [d-Methionine, D-methionine]
reduction of BR96-DOX cell kill, other chemoprotective agents ([1]; NHGC): no significant effect

COc1cccc2c1C(=O)c1c(O)c3c(c(O)c1C2=O)C[C@@](O)(C(=O)CO)C[C@@H]3O[C@H]1C[C@H](N)[C@H](O)[C@H](C)O1 [doxorubicin]
EC50 ([2]; read-out: half maximal cytotoxic dose (EC50), AGS cells, absence of BSO): 0.1 µg/mL (≈ 0.184 µM)
EC50 ([2]; read-out: half maximal cytotoxic dose (EC50), AGS cells, pretreatment with BSO 100 μM): ~0.05 µg/mL (≈ 0.092 µM)
